Results taken from publication PMC6001238, “Iterative Chemical Engineering of Vancomycin Leads to Novel Vancomycin Analogs With a High in Vitro Therapeutic Index” (Frontiers in Microbiology, 2018).
≈ marks a conversion by molar mass, not a printed value.

Columns and labels:
E. faecalis VRE 6 = experiment: MIC, broth microdilution, vancomycin-resistant E. faecalis VRE 6 (VanA); format: cell-based, Enterococcus faecalis; settings: for MIC: Enterococcus faecalis VRE 6 (vancomycin-resistant), read-out: MIC; for MIC-fold improvement vs. vancomycin: VRE 6, ratio of MIC of vancomycin and MIC of analogue
In short: (§1)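 MIC values come from broth microdilution run to CLSI susceptibility-testing standards. Ultrapure water and uninoculated broth served as controls. In one series, vancomycin at a final 10 μM was co-dosed with the analogue or comparator antibiotic.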

E. faecalis VRE 37 = experiment: MIC, broth microdilution, vancomycin-resistant E. faecalis VRE 37 (VanA); format: cell-based, Enterococcus faecalis; settings: for MIC: Enterococcus faecalis VRE 37 (vancomycin-resistant), read-out: MIC; for MIC-fold improvement vs. vancomycin: VRE 37, ratio of MIC of vancomycin and MIC of analogue
In short: as §1

[1] = test system: L1210, CEM and HeLa cell lines; experiment: Cytostatic activity, average or summary over L1210, CEM and HeLa; format: cell-based; settings: average of L1210, CEM and HeLa; read-out: Toxicity (IC50) Average
In short: (§2)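 Coulter counter cell counts after 37°C culture with compound; IC50 = concentration giving 50% growth inhibition vs negative control. Incubation: L1210 2 d, CEM 3 d, HeLa 4 d. Suspension density before mixing with an equal volume of dilution: 300,000–500,000 cells/mL.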

MRSA KS2 = experiment: MIC, broth microdilution, MRSA KS2; format: cell-based, Staphylococcus aureus; settings: for MIC-fold improvement vs. vancomycin: MRSA KS2, ratio of MIC of vancomycin and MIC of analogue; for MIC: Staphylococcus aureus MRSA KS2, read-out: MIC
In short: as §1

[2] = test system: human cervix carcinoma (HeLa) cells; experiment: Cytostatic activity, HeLa cell proliferation; format: cell-based; settings: mean ± SD of three experiments; highest concentration tested 250 µM; 4 days; read-out: Toxicity (IC50) HeLa
In short: as §2

[3] = test system: human T-lymphocyte (CEM) cells; experiment: Cytostatic activity, CEM cell proliferation; format: cell-based; settings: mean ± SD of three experiments; highest concentration tested 250 µM; 3 days; read-out: Toxicity (IC50) CEM
In short: as §2

MRSA KS1 = experiment: MIC, broth microdilution, MRSA KS1; format: cell-based, Staphylococcus aureus; settings: for MIC-fold improvement vs. vancomycin: MRSA KS1, ratio of MIC of vancomycin and MIC of analogue; for MIC: Staphylococcus aureus MRSA KS1, read-out: MIC
In short: as §1

E. faecalis VSE 1 = experiment: MIC, broth microdilution, vancomycin-sensitive E. faecalis (VSE 1); format: cell-based, Enterococcus faecalis; settings: for MIC: Enterococcus faecalis VSE 1 (vancomycin-sensitive), read-out: MIC; for MIC-fold improvement vs. vancomycin: VSE 1, ratio of MIC of vancomycin and MIC of analogue
In short: as §1

S. aureus VRSA = experiment: MIC, broth microdilution, vancomycin-resistant S. aureus (VRSA); format: cell-based, Staphylococcus aureus; settings: for MIC: Staphylococcus aureus VRSA, read-out: MIC; for MIC-fold improvement vs. vancomycin: VRSA, ratio of MIC of vancomycin and MIC of analogue
In short: as §1

[4] = test system: S. aureus VSSA (ATCC 6538); experiment: MIC, broth microdilution, vancomycin-sensitive S. aureus (VSSA/MSSA, ATCC 6538); format: cell-based, Staphylococcus aureus; settings: for MIC: Staphylococcus aureus VSSA, read-out: MIC; for MIC-fold improvement vs. vancomycin: VSSA, ratio of MIC of vancomycin and MIC of analogue
In short: as §1

[5] = test system: Murine leukemia (L1210) cells; experiment: Cytostatic activity, L1210 cell proliferation; format: cell-based; settings: mean ± SD of three experiments; highest concentration tested 250 µM; 2 days; read-out: Toxicity (IC50) L1210
In short: as §2

MRSA KS89 = experiment: MIC, broth microdilution, MRSA KS89; format: cell-based, Staphylococcus aureus; settings: for MIC-fold improvement vs. vancomycin: MRSA KS8, ratio of MIC of vancomycin and MIC of analogue; for MIC: Staphylococcus aureus MRSA KS8, read-out: MIC
In short: as §1

E. faecalis VRE 29 = experiment: MIC, broth microdilution, vancomycin-resistant E. faecalis VRE 29 (VanA); format: cell-based, Enterococcus faecalis; settings: for MIC: Enterococcus faecalis VRE 29 (vancomycin-resistant), read-out: MIC; for MIC-fold improvement vs. vancomycin: VRE 29, ratio of MIC of vancomycin and MIC of analogue
In short: as §1

E. faecalis VRE 53 = experiment: MIC, broth microdilution, vancomycin-resistant E. faecalis VRE 53 (VanA); format: cell-based, Enterococcus faecalis; settings: for MIC: Enterococcus faecalis VRE 53 (vancomycin-resistant), read-out: MIC; for MIC-fold improvement vs. vancomycin: VRE 53, ratio of MIC of vancomycin and MIC of analogue
In short: as §1

MRSA KS6 = experiment: MIC, broth microdilution, MRSA KS6; format: cell-based, Staphylococcus aureus; settings: for MIC-fold improvement vs. vancomycin: MRSA KS6, ratio of MIC of vancomycin and MIC of analogue; for MIC: Staphylococcus aureus MRSA KS6, read-out: MIC
In short: as §1

S. aureus VISA/HIP5827 = experiment: MIC, broth microdilution, vancomycin-intermediate S. aureus VISA HIP5827; format: cell-based, Staphylococcus aureus; settings: for MIC: Staphylococcus aureus VISA/HIP5827, read-out: MIC; for MIC-fold improvement vs. vancomycin: VISA/HIP5827, ratio of MIC of vancomycin and MIC of analogue
In short: as §1

SMILES	MIC (E. faecalis VRE 6) [µM]	MIC-fold improvement vs. vancomycin (E. faecalis VRE 6)	MIC (E. faecalis VRE 37) [µM]	MIC-fold improvement vs. vancomycin (E. faecalis VRE 37)	IC50 [1] [µM]	MIC-fold improvement vs. vancomycin (MRSA KS2)	MIC (MRSA KS2) [µM]	IC50 [2] [µM]	IC50 [3] [µM]	MIC-fold improvement vs. vancomycin (MRSA KS1)	MIC (MRSA KS1) [µM]	MIC (E. faecalis VSE 1) [µM]	MIC-fold improvement vs. vancomycin (E. faecalis VSE 1)	MIC (S. aureus VRSA) [µM]	MIC-fold improvement vs. vancomycin (S. aureus VRSA)	MIC [4] [µM]	MIC-fold improvement vs. vancomycin [4]	IC50 [5] [µM]	MIC-fold improvement vs. vancomycin (MRSA KS89)	MIC (MRSA KS89) [µM]	further results
CN[C@H](CC(C)C)C(=O)N[C@H]1C(=O)N[C@@H](CC(N)=O)C(=O)N[C@H]2C(=O)N[C@H]3C(=O)N[C@H](C(=O)N[C@H](C(=O)NCC(=O)Nc4ccc(Oc5ccccc5)cc4)c4cc(O)cc(O)c4-c4cc3ccc4O)[C@H](O)c3ccc(c(Cl)c3)Oc3cc2cc(c3O[C@@H]2O[C@H](CO)[C@@H](O)[C@H](O)[C@H]2O[C@H]2C[C@](C)(N)[C@H](O)[C@H](C)O2)Oc2ccc(cc2Cl)[C@H]1O [Vanc-71]	3.13 (≈ 5.24 µg/mL)	64	6.25 (≈ 10.5 µg/mL)	64	159	4	0.20 (≈ 0.335 µg/mL)	91 ± 36	137 ± 41	4	0.20 (≈ 0.335 µg/mL)	0.78 (≈ 1.31 µg/mL)	2	1.56 (≈ 2.61 µg/mL)	64	0.39 (≈ 0.653 µg/mL)	2	> 250	4	0.20 (≈ 0.335 µg/mL)	MIC (E. faecalis VRE 29): 6.25 µM (≈ 10.5 µg/mL); MIC-fold improvement vs. vancomycin (E. faecalis VRE 29): 64; MIC (E. faecalis VRE 53): 6.25 µM (≈ 10.5 µg/mL); MIC-fold improvement vs. vancomycin (E. faecalis VRE 53): 64; MIC-fold improvement vs. vancomycin (MRSA KS6): 4; MIC (MRSA KS6): 0.20 µM (≈ 0.335 µg/mL); MIC (S. aureus VISA/HIP5827): 0.78 µM (≈ 1.31 µg/mL); MIC-fold improvement vs. vancomycin (S. aureus VISA/HIP5827): 8
CNC(CC(C)C)C(=O)NC1C(=O)NC(CC(N)=O)C(=O)NC2C(=O)NC3C(=O)NC(C(=O)NC(C(=O)NCCCNC(=O)c4nc5ccccc5[nH]4)c4cc(O)cc(O)c4-c4cc3ccc4O)C(O)c3ccc(c(Cl)c3)Oc3cc2cc(c3OC2OC(CO)C(O)C(O)C2OC2CC(C)(N)C(O)C(C)O2)Oc2ccc(cc2Cl)C1O (stereo not shown) [Vanc-52]	25 (≈ 41.2 µg/mL)	8	50 (≈ 82.5 µg/mL)	8	201	2	0.39 (≈ 0.643 µg/mL)	104 ± 13	> 250	2	0.39 (≈ 0.643 µg/mL)	0.78 (≈ 1.29 µg/mL)	2	1.56 (≈ 2.57 µg/mL)	64	0.39 (≈ 0.643 µg/mL)	2	≥ 250	1	0.78 (≈ 1.29 µg/mL)	MIC (E. faecalis VRE 29): 50 µM (≈ 82.5 µg/mL); MIC-fold improvement vs. vancomycin (E. faecalis VRE 29): 8; MIC (E. faecalis VRE 53): 25 µM (≈ 41.2 µg/mL); MIC-fold improvement vs. vancomycin (E. faecalis VRE 53): 16; MIC-fold improvement vs. vancomycin (MRSA KS6): 1; MIC (MRSA KS6): 0.78 µM (≈ 1.29 µg/mL); MIC (S. aureus VISA/HIP5827): 0.78 µM (≈ 1.29 µg/mL); MIC-fold improvement vs. vancomycin (S. aureus VISA/HIP5827): 8
CNC(CC(C)C)C(=O)NC1C(=O)NC(CC(N)=O)C(=O)NC2C(=O)NC3C(=O)NC(C(=O)NC(C(=O)NCCCNC(=O)c4ccc(C(F)(F)F)cc4)c4cc(O)cc(O)c4-c4cc3ccc4O)C(O)c3ccc(c(Cl)c3)Oc3cc2cc(c3OC2OC(CO)C(O)C(O)C2OC2CC(C)(N)C(O)C(C)O2)Oc2ccc(cc2Cl)C1O (stereo not shown) [Vanc-32]	3.13 (≈ 5.25 µg/mL)	64	25 (≈ 41.9 µg/mL)	16	157	2	0.39 (≈ 0.654 µg/mL)	106 ± 2	200 ± 12	2	0.39 (≈ 0.654 µg/mL)	0.39 (≈ 0.654 µg/mL)	4	6.25 (≈ 10.5 µg/mL)	16	0.78 (≈ 1.31 µg/mL)	1	164 ± 46	2	0.39 (≈ 0.654 µg/mL)	MIC (E. faecalis VRE 29): 12.5 µM (≈ 21 µg/mL); MIC-fold improvement vs. vancomycin (E. faecalis VRE 29): 32; MIC (E. faecalis VRE 53): 50 µM (≈ 83.9 µg/mL); MIC-fold improvement vs. vancomycin (E. faecalis VRE 53): 8; MIC-fold improvement vs. vancomycin (MRSA KS6): 2; MIC (MRSA KS6): 0.39 µM (≈ 0.654 µg/mL); MIC (S. aureus VISA/HIP5827): 0.78 µM (≈ 1.31 µg/mL); MIC-fold improvement vs. vancomycin (S. aureus VISA/HIP5827): 8
CNC(CC(C)C)C(=O)NC1C(=O)NC(CC(N)=O)C(=O)NC2C(=O)NC3C(=O)NC(C(=O)NC(C(=O)NCC(=O)Nc4ccc(O)cc4)c4cc(O)cc(O)c4-c4cc3ccc4O)C(O)c3ccc(c(Cl)c3)Oc3cc2cc(c3OC2OC(CO)C(O)C(O)C2OC2CC(C)(N)C(O)C(C)O2)Oc2ccc(cc2Cl)C1O (stereo not shown) [Vanc-1]	25 (≈ 39.9 µg/mL)	8	50 (≈ 79.9 µg/mL)	16	191	1	0.78 (≈ 1.25 µg/mL)	72 ± 10	> 250	1	0.78 (≈ 1.25 µg/mL)	0.78 (≈ 1.25 µg/mL)	2	25 (≈ 39.9 µg/mL)	4	0.78 (≈ 1.25 µg/mL)	1	> 250	1	0.78 (≈ 1.25 µg/mL)	MIC (E. faecalis VRE 29): >50 µM; MIC-fold improvement vs. vancomycin (E. faecalis VRE 29): <8; MIC (E. faecalis VRE 53): 25 µM (≈ 39.9 µg/mL); MIC-fold improvement vs. vancomycin (E. faecalis VRE 53): 16; MIC-fold improvement vs. vancomycin (MRSA KS6): 1; MIC (MRSA KS6): 0.78 µM (≈ 1.25 µg/mL); MIC (S. aureus VISA/HIP5827): 0.78 µM (≈ 1.25 µg/mL); MIC-fold improvement vs. vancomycin (S. aureus VISA/HIP5827): 8
